Experimental data: patent publication US6358885B1, “Substituted phenylheterocyclic herbicides” (Mississippi State University, priority 1992, dated 2002)

How the values were obtained:
barley [1] = test: Test B preemergence/postemergence greenhouse plant response rating 0 to 10; assay type: in vivo, Hordeum vulgare; details: for Plant response rating, Barley: 0 to 10 scale
How it was run: (§1)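 Planted seeds are treated preemergence with compound dissolved in a non-phytotoxic solvent, while postemergence applications go onto plants of two to eighteen cm. Plants stay in the greenhouse twelve to sixteen days and are then rated visually relative to controls.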

bedstraw = test: as above; assay type: in vivo, Galium aparine; details: for Plant response rating, Bedstraw: 0 to 10 scale
How it was run: as §1

chickweed [2] = test: as above; assay type: in vivo, Stellaria media; details: 0 to 10 scale
How it was run: as §1

cocklebur = test: as above; assay type: in vivo, Xanthium pensylvanicum; details: for Plant response rating, Cocklebur: 0 to 10 scale
How it was run: as §1

morningglory = test: as above; assay type: in vivo, Ipomoea hederacea; details: 0 to 10 scale
How it was run: as §1

sorghum = test: as above; assay type: in vivo, Sorghum bicolor; details: 0 to 10 scale
How it was run: as §1

soybean [3] = test: as above; assay type: in vivo, Glycine max; details: 0 to 10 scale
How it was run: as §1

sugar beet = test: as above; assay type: in vivo, Beta vulgaris; details: 0 to 10 scale
How it was run: as §1

velvetleaf = test: as above; assay type: in vivo, Abutilon theophrasti; details: 0 to 10 scale
How it was run: as §1

wild buckwheat = test: as above; assay type: in vivo, Polygonum convolvulus; details: 0 to 10 scale
How it was run: as §1

barley [4] = test: Test C preemergence/postemergence greenhouse plant response rating 0 to 100; assay type: in vivo, Hordeum vulgare; details: POSTEMERGENCE; for Plant response rating Barley Igri: 0 to 100 scale
How it was run: (§2)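 Compounds in non-phytotoxic solvent applied preemergence to sandy loam one day after planting, postemergence at the 1–4 leaf stage, or to ~2.5 cm floodwater over silt loam.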

blackgrass = test: as above; assay type: in vivo, Alopecurus myosuroides; details: POSTEMERGENCE; for Plant response rating, Blackgrass: 0 to 100 scale
How it was run: as §2

chickweed [5] = test: as above; assay type: in vivo, Stellaria media; details: POSTEMERGENCE; for Plant response rating, Chickweed: 0 to 100 scale
How it was run: as §2

pigweed = test: as above; assay type: in vivo, Amaranthusretroflexus; details: POSTEMERGENCE; for Plant response rating Pigweed: 0 to 100 scale
How it was run: as §2

rape = test: as above; assay type: in vivo, Brassica napus; details: POSTEMERGENCE; for Plant response rating, Rape: 0 to 100 scale
How it was run: as §2

ryegrass = test: as above; assay type: in vivo, Lolium multiflorum; details: POSTEMERGENCE; for Plant response rating Ryegrass: 0 to 100 scale
How it was run: as §2

soybean [6] = test: as above; assay type: in vivo, Glycine max; details: POSTEMERGENCE; for Plant response rating, Soybean: 0 to 100 scale
How it was run: as §2

umbrella sedge = test: Test C flood test plant response rating 0 to 100; assay type: in vivo, Cyperus difformis; details: for Plant response rating Umbrella sedge: flood test species listed under POSTEMERGENCE, 0 to 100 scale
How it was run: as §2

COc1cc(-c2nn3c(c2Cl)CCCC3)c(F)cc1Cl [Compound 29]
Plant response rating (0 to 10 scale), Barley (barley [1]; POSTEMERGENCE, Rate 50 g/ha): 5
Plant response rating, Barley (barley [1]; POSTEMERGENCE, Rate 200 g/ha): 7
Plant response rating, Barley (barley [1]; PREEMERGENCE, Rate 50 g/ha): 0
Plant response rating, Barley (barley [1]; Rate 200 g/ha, PREEMERGENCE): 4
Plant response rating (0 to 10 scale), Bedstraw (bedstraw; POSTEMERGENCE, Rate 50 g/ha): 7
Plant response rating, Bedstraw (bedstraw; POSTEMERGENCE, Rate 200 g/ha): 10
Plant response rating, Bedstraw (bedstraw; PREEMERGENCE, Rate 50 g/ha): 7
Plant response rating, Bedstraw (bedstraw; Rate 200 g/ha, PREEMERGENCE): 9
Plant response rating, Chickweed (chickweed [2]; POSTEMERGENCE, Rate 200 g/ha): 8
Plant response rating, Chickweed (chickweed [2]; PREEMERGENCE, Rate 50 g/ha): 3
Plant response rating, Chickweed (chickweed [2]; Rate 200 g/ha, PREEMERGENCE): 7
Plant response rating (0 to 10 scale), Cocklebur (cocklebur; POSTEMERGENCE, Rate 50 g/ha): 6
Plant response rating, Cocklebur (cocklebur; POSTEMERGENCE, Rate 200 g/ha): 10
Plant response rating, Cocklebur (cocklebur; PREEMERGENCE, Rate 50 g/ha): 2
Plant response rating, Cocklebur (cocklebur; Rate 200 g/ha, PREEMERGENCE): 4
Plant response rating, Morningglory (morningglory; POSTEMERGENCE, Rate 50 g/ha): 8
Plant response rating, Morningglory (morningglory; PREEMERGENCE, Rate 50 g/ha): 2
Plant response rating, Morningglory (morningglory; Rate 200 g/ha, POSTEMERGENCE): 10
Plant response rating, Morningglory (morningglory; Rate 200 g/ha, PREEMERGENCE): 5
Plant response rating, Sorghum (sorghum; POSTEMERGENCE, Rate 50 g/ha): 5
Plant response rating, Sorghum (sorghum; PREEMERGENCE, Rate 50 g/ha): 0
Plant response rating, Sorghum (sorghum; Rate 200 g/ha, POSTEMERGENCE): 6
Plant response rating, Sorghum (sorghum; Rate 200 g/ha, PREEMERGENCE): 1
Plant response rating, Soybean (soybean [3]; POSTEMERGENCE, Rate 50 g/ha): 8
Plant response rating, Soybean (soybean [3]; PREEMERGENCE, Rate 50 g/ha): 1
Plant response rating, Soybean (soybean [3]; Rate 200 g/ha, POSTEMERGENCE): 9
Plant response rating, Soybean (soybean [3]; Rate 200 g/ha, PREEMERGENCE): 5
Plant response rating, Sugar beet (sugar beet; POSTEMERGENCE, Rate 50 g/ha): 10
Plant response rating, Sugar beet (sugar beet; PREEMERGENCE, Rate 50 g/ha): 7
Plant response rating, Sugar beet (sugar beet; Rate 200 g/ha, POSTEMERGENCE): 10
Plant response rating, Sugar beet (sugar beet; Rate 200 g/ha, PREEMERGENCE): 10
Plant response rating, Velvetleaf (velvetleaf; POSTEMERGENCE, Rate 50 g/ha): 8
Plant response rating, Velvetleaf (velvetleaf; PREEMERGENCE, Rate 50 g/ha): 10
Plant response rating, Velvetleaf (velvetleaf; Rate 200 g/ha, POSTEMERGENCE): 10
Plant response rating, Velvetleaf (velvetleaf; Rate 200 g/ha, PREEMERGENCE): 10
Plant response rating, Wild buckwheat (wild buckwheat; POSTEMERGENCE, Rate 50 g/ha): 10
Plant response rating, Wild buckwheat (wild buckwheat; PREEMERGENCE, Rate 50 g/ha): 8
Plant response rating, Wild buckwheat (wild buckwheat; Rate 200 g/ha, POSTEMERGENCE): 10
Plant response rating, Wild buckwheat (wild buckwheat; Rate 200 g/ha, PREEMERGENCE): 10
Plant response rating Barley Igri (barley [4]; 62 g/ha): 60
Plant response rating Barley Igri (barley [4]; 250 g/ha): 90
Plant response rating (0 to 100), Barley Igri (barley [4]; Rate 4 g/ha): 20
Plant response rating (0 to 100), Barley Igri (barley [4]; Rate 16 g/ha): 40
Plant response rating, Blackgrass (blackgrass; 62 g/ha): 50
Plant response rating, Blackgrass (blackgrass; 250 g/ha): 90
Plant response rating (0 to 100), Blackgrass (blackgrass; Rate 4 g/ha): 20
Plant response rating (0 to 100), Blackgrass (blackgrass; Rate 16 g/ha): 30
Plant response rating, Chickweed (chickweed [5]; 62 g/ha): 60
Plant response rating, Chickweed (chickweed [5]; 250 g/ha): 95
Plant response rating (0 to 100), Chickweed (chickweed [5]; Rate 4 g/ha): 10
Plant response rating (0 to 100), Chickweed (chickweed [5]; Rate 16 g/ha): 40
Plant response rating Pigweed (pigweed; 62 g/ha): 100
Plant response rating Pigweed (pigweed; 250 g/ha): 100
Plant response rating (0 to 100), Pigweed (pigweed; Rate 4 g/ha): 50
Plant response rating (0 to 100), Pigweed (pigweed; Rate 16 g/ha): 100
Plant response rating, Rape (rape; 62 g/ha): 100
Plant response rating, Rape (rape; 250 g/ha): 100
Plant response rating (0 to 100), Rape (rape; Rate 4 g/ha): 90
Plant response rating (0 to 100), Rape (rape; Rate 16 g/ha): 100
Plant response rating Ryegrass (ryegrass; 62 g/ha): 70
Plant response rating Ryegrass (ryegrass; 250 g/ha): 90
Plant response rating (0 to 100), Ryegrass (ryegrass; Rate 4 g/ha): 30
Plant response rating (0 to 100), Ryegrass (ryegrass; Rate 16 g/ha): 60
Plant response rating, Soybean (soybean [6]; 62 g/ha): 60
Plant response rating, Soybean (soybean [6]; 250 g/ha): 100
Plant response rating (0 to 100), Soybean (soybean [6]; Rate 4 g/ha): 10
Plant response rating (0 to 100), Soybean (soybean [6]; Rate 16 g/ha): 50
Plant response rating (0 to 100), Umbrella sedge (umbrella sedge; POSTEMERGENCE section, flood test, Rate 4 g/ha): 20
Plant response rating (0 to 100), Umbrella sedge (umbrella sedge; Rate 16 g/ha, under POSTEMERGENCE head (flood test species)): 30
Plant response rating Umbrella sedge (umbrella sedge; 62 g/ha): 90
Plant response rating Umbrella sedge (umbrella sedge; 250 g/ha): 95
